Test [1] relates to SNU475 cell line. Conditions: known property of the SNU475 cell line; cited from earlier work.
Test [2] has as its system Huh7 and Hep3B cell lines. In words: Cell viability in hepatocellular carcinoma cell lines without drug resistance. In kind it is cell-based. Conditions: 0, 1, and 3 µM range, FIG. 4A. How it is done:
(§1) For cell viability measurements on cancer cell lines, three hepatocellular carcinoma cell lines (Huh-7, Hep3B, and SNU475) were seeded in a 384-well plate at a density of 2,000 cells/40 μl/well. After incubation for 16 hours, the extract of the present invention was treated at a concentration of 10 μl/well, followed by incubation at 37° C. for 48 hours. After 48 hours, 40 μl/well of the medium was removed and 4% paraformaldehyde was added to be a 30 μl/well, followed by incubation at room temperature for 10 minutes. Thereafter, after washing with DPBS, nuclear staining was performed with Hoechst33342 at a concentration of […] at room temperature for 10 minutes. After washing twice with DPBS, images were acquired with Operetta. The cell viability was identified by counting the number of cells using Operetta software.

The test system of test [3] is SNU475 cell line. The experiment in a line: Cell viability in anticancer drug-resistant cancer cells. In kind it is cell-based. Conditions: 0, 1, and 3 µM range, FIG. 4A. The method, then:
as §1

These results are taken from US20250009835A1, “PHARMACEUTICAL COMPOSITION AND HEALTH FUNCTIONAL FOOD FOR PREVENTION OR TREATMENT OF CANCER COMPRISING MIXED HERBAL EXTRACT” (H&O BIOSIS CO., LTD., priority 2021, published 2025).

Take `CNC(=O)c1cc(Oc2ccc(NC(=O)Nc3ccc(Cl)c(C(F)(F)F)c3)c(F)c2)ccn1` [regorafenib]: in test [1], the “resistance of SNU475 to regorafenib” value is “strong resistance”.

In the case of `CNC(=O)c1cc(Oc2ccc(NC(=O)Nc3ccc(Cl)c(C(F)(F)F)c3)cc2)ccn1` [sorafenib], in test [2], the “anticancer effect of sorafenib in Huh7 and Hep3B” value is on record as “anticancer effect was exhibited”. For the same compound, in test [3], the “anticancer effect of sorafenib in SNU475” value is “exhibited resistance”.
